From patent US8299048B2, “Hexahydrocyclopentyl[f]indazole sulfonamides and derivatives thereof as selective glucocorticoid receptor modulators” (Merck Sharp & Dohme Corp., priority 2008, dated 2012)

Assays:
human GR [1] = target: T1, human GR (Homo sapiens, UniProt P04150); assay: Trans-Activation Modulation of Glucocorticoid Receptor (GRAMMER), MMTV-LUC reporter, agonist mode; assay type: cell-based; design: endogenous in cells; conditions: for Emax: A549, A549 cells, maximum activity, read-out: Transactivation A549 Cells GRAMMER Emax; for EC50: A549 cells, inflection point, read-out: Transactivation A549 Cells GRAMMER IP
T1 sequence (P04150 1-777): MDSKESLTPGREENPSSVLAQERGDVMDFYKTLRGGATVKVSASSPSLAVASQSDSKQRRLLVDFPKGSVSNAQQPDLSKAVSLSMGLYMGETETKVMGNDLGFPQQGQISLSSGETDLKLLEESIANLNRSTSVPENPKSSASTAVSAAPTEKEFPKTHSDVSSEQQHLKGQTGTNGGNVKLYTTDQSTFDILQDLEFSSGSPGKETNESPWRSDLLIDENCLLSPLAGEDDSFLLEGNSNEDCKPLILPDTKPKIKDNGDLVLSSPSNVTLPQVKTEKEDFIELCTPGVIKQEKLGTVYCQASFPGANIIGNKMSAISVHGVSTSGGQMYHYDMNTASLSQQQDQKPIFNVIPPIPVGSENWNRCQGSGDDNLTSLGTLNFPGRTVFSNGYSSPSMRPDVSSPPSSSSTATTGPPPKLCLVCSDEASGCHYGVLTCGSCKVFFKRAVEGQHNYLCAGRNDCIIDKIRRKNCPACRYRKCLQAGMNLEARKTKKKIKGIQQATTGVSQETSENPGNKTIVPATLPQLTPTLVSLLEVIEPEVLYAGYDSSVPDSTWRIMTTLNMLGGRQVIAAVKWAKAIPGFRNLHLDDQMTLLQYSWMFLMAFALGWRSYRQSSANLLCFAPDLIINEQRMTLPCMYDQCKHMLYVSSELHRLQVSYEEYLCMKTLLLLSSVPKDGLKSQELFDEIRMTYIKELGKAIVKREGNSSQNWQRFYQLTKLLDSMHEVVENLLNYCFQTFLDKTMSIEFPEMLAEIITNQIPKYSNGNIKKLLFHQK
Procedure, shortened: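 Readout is luciferase from a modified MMTV LTR promoter after 24 h compound exposure alongside 10 nM dexamethasone (100% activity reference), DMSO ≤1%.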

human GR [2] = target: T1, human GR; assay: Transrepression Assay (GITAR), TNFα-β-lactamase reporter in U937 cells; assay type: cell-based; design: U937 cells contain an endogenous glucocorticoid receptor (GR); endogenous in cells; host or cells: U937 cells stably transfected with the TNF-alpha promoter/beta-lactamase reporter; conditions: for GITAR > GRAMM % SEP: GITAR Emax minus GRAMMER Emax; for EC50: U937 cells, inflection point, read-out: Transrepression U937 Cells GITAR IP
Procedure, shortened: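 U937 cells stably carrying a TNF-α promoter–β-lactamase reporter, with endogenous GR, are preincubated with compound 30–45 min at 37 °C, then stimulated with PMA (5 ng/ml final) and LPS (100 ng/ml final) overnight (~18 hr). β-Lactamase is read with CCF2-AM substrate; repression by 100 nM dexamethasone defines 100%.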

[3] = U-937, U937 cells, maximum activity, read-out: Transrepression U937 Cells GITAR Emax
[4] = U-937, activity repressed by 100 nM dexamethasone alone set as 100%, read-out: maximal activity in the transrepression (GITAR) assay

## C[C@]12Cc3cnn(-c4ccc(F)cc4)c3C=C1CC[C@@H]2CN(CCc1ccccc1F)S(=O)(=O)Cc1ccccc1C(F)(F)F [Example 108, N-[2-(2-fluorophenyl)ethyl]-N-{[(4αR,5S)-1-(4-fluorophenyl)-4α-methyl-1,4,4α,5,6,7-hexahydrocyclopenta[f]indazol-5-yl]methyl}-1-[2-(trifluoromethyl)phenyl]methanesulfonamide]
Human GR [1]
  Emax: 46%
  EC50: 521 nM
Human GR [2]
  GITAR > GRAMM % SEP: 24.6%
  EC50: 185 nM
Human GR [2]; [3]
  Emax: 70.5%
Human GR [2]; [4]
  Emax: > 5%

## CC(C1CCC2=Cc3c(cnn3-c3ccc(F)cc3)C[C@@]21C)N(CC1CC1)S(=O)(=O)CC(F)(F)F (stereo partly drawn) [Example 109, N-(cyclopropylmethyl)-2,2,2-trifluoro-N-{1-[(4αR)-1-(4-fluorophenyl)-4α-methyl-1,4,4α,5,6,7-hexahydrocyclopenta[f]indazol-5-yl]ethyl}ethanesulfonamide]
Human GR [1]
  Emax: 54.1%
  EC50: 209 nM
Human GR [2]
  GITAR > GRAMM % SEP: 37.0%
  EC50: 190 nM
Human GR [2]; [3]
  Emax: 91.1%
Human GR [2]; [4]
  Emax: > 5%

## C[C@]12Cc3cnn(-c4ccc(F)cc4)c3C=C1CC[C@@H]2CN(CC1CCCO1)S(=O)(=O)Cc1cccc(C(F)(F)F)c1 (stereo partly drawn) [Example 110, N-{[(4αR,5S)-1-(4-fluorophenyl)-4α-methyl-1,4,4α,5,6,7-hexahydrocyclopenta[f]indazol-5-yl]methyl}-N-(tetrahydrofuran-2-ylmethyl)-1-[3-(trifluoromethyl)phenyl]methanesulfonamide]
Human GR [1]
  Emax: 4.9%
  EC50: 1100 nM
Human GR [2]
  GITAR > GRAMM % SEP: 21.3%
  EC50: 626 nM
Human GR [2]; [3]
  Emax: 26.2%
Human GR [2]; [4]
  Emax: > 5%

## C[C@]12Cc3cnn(-c4ccc(F)cc4)c3C=C1CC[C@@H]2CN(CCc1ccccc1F)S(=O)(=O)Cc1ccc(Cl)c(Cl)c1 [Example 111, 1-(3,4-dichlorophenyl)-N-[2-(2-fluorophenyl)ethyl]-N-{[(4αR,5S)-1-(4-fluorophenyl)-4α-methyl-1,4,4α,5,6,7-hexahydrocyclopenta[f]indazol-5-yl]methyl}methanesulfonamide]
Human GR [1]
  Emax: 37.6%
  EC50: 748 nM
Human GR [2]
  GITAR > GRAMM % SEP: 38.1%
  EC50: 325 nM
Human GR [2]; [3]
  Emax: 75.7%
Human GR [2]; [4]
  Emax: > 5%

## C[C@H](O)CN(C[C@H]1CCC2=Cc3c(cnn3-c3ccc(F)cc3)C[C@@]21C)S(=O)(=O)c1ccc(F)c(Cl)c1 [Example 112, 3-chloro-4-fluoro-N-{[(4αR,5S)-1-(4-fluorophenyl)-4α-methyl-1,4,4α,5,6,7-hexahydrocyclopenta[f]indazol-5-yl]methyl}-N-[(2S)-2-hydroxypropyl]benzenesulfonamide]
Human GR [1]
  Emax: 33.4%
  EC50: 423 nM
Human GR [2]
  GITAR > GRAMM % SEP: 32.3%
  EC50: 337 nM
Human GR [2]; [3]
  Emax: 65.7%
Human GR [2]; [4]
  Emax: > 5%

## C[C@H](O)CN(C[C@H]1CCC2=Cc3c(cnn3-c3ccc(F)cc3)C[C@@]21C)S(=O)(=O)CC(F)(F)F [Example 113]
Human GR [1]
  Emax: 85.4%
  EC50: 54.7 nM
Human GR [2]
  GITAR > GRAMM % SEP: 8.7%
  EC50: 59 nM
Human GR [2]; [3]
  Emax: 94%
Human GR [2]; [4]
  Emax: > 5%

## C[C@@H](CN(C[C@H]1CCC2=Cc3c(cnn3-c3ccc(F)cc3)C[C@@]21C)S(=O)(=O)CC(F)(F)F)OS(=O)(=O)CC(F)(F)F [Example 114, (1S)-2-{{[(4αR,5S)-1-(4-fluorophenyl)-4α-methyl-1,4,4α,5,6,7-hexahydrocyclopenta[f]indazol-5-yl]methyl}[(2,2,2-trifluoroethyl)sulfonyl]amino}-1-methylethyl 2,2,2-trifluoroethanesulfonate]
Human GR [1]
  Emax: 80.3%
  EC50: 161 nM
Human GR [2]
  GITAR > GRAMM % SEP: 18.2%
  EC50: 148 nM
Human GR [2]; [3]
  Emax: 98.5%
Human GR [2]; [4]
  Emax: > 5%

## C[C@@H](O)CN(C[C@H]1CCC2=Cc3c(cnn3-c3ccc(F)cc3)C[C@@]21C)S(=O)(=O)c1ccc(F)c(Cl)c1 [Example 115, 3-chloro-4-fluoro-N-{[(4αR,5S)-1-(4-fluorophenyl)-4α-methyl-1,4,4α,5,6,7-hexahydrocyclopenta[f]indazol-5-yl]methyl}-N-[(2R)-2-hydroxypropyl]benzenesulfonamide]
Human GR [1]
  Emax: 26.1%
  EC50: 786 nM
Human GR [2]
  GITAR > GRAMM % SEP: 31.2%
  EC50: 643 nM
Human GR [2]; [3]
  Emax: 57.4%
Human GR [2]; [4]
  Emax: > 5%

## C[C@]12Cc3cnn(-c4ccc(F)cc4)c3C=C1CC[C@@H]2CN(CCc1ccccc1O)S(=O)(=O)c1ccccc1F [Example 116, 2-fluoro-N-{[(4αR,5S)-1-(4-fluorophenyl)-4α-methyl-1,4,4α,5,6,7-hexahydrocyclopenta[f]indazol-5-yl]methyl}-N-[2-(2-hydroxyphenyl)ethyl]benzenesulfonamide]
Human GR [1]
  Emax: 73.5%
  EC50: 676 nM
Human GR [2]
  GITAR > GRAMM % SEP: 7.7%
  EC50: 94.9 nM
Human GR [2]; [3]
  Emax: 81.2%
Human GR [2]; [4]
  Emax: > 5%

## C[C@]12Cc3cnn(-c4ccc(F)cc4)c3C=C1CC[C@@H]2CN(CCO)S(=O)(=O)c1ccccc1C(N)=O [Example 117, 2-{[{[(4αR,5S)-1-(4-fluorophenyl)-4α-methyl-1,4,4α,5,6,7-hexahydrocyclopenta[f]indazol-5-yl]methyl}(2-hydroxyethyl)amino]sulfonyl}benzamide]
Human GR [1]
  Emax: 45.1%
  EC50: 449 nM
Human GR [2]
  GITAR > GRAMM % SEP: 28.6%
  EC50: 533 nM
Human GR [2]; [3]
  Emax: 73.7%
Human GR [2]; [4]
  Emax: > 5%

## COCCN(C[C@H]1CCC2=Cc3c(cnn3-c3ccc(F)cc3)C[C@@]21C)S(=O)(=O)CCN1C(=O)c2ccccc2C1=O [Example 118, 2-(1,3-dioxo-1,3-dihydro-2H-isoindol-2-yl)-N-{[(4αR,5S)-1-(4-fluorophenyl)-4α-methyl-1,4,4α,5,6,7-hexahydrocyclopenta[f]indazol-5-yl]methyl}-N-(2-methoxyethyl)ethanesulfonamide]
Human GR [1]
  Emax: 8.7%
  EC50: 853 nM
Human GR [2]
  GITAR > GRAMM % SEP: 25.4%
  EC50: 1050 nM
Human GR [2]; [3]
  Emax: 34.1%
Human GR [2]; [4]
  Emax: > 5%

## COc1ccccc1CCN(C[C@H]1CCC2=Cc3c(cnn3-c3ccc(F)cc3)C[C@@]21C)S(=O)(=O)Cc1cccc(C(F)(F)F)c1 [Example 119, N-{[(4αR,5S)-1-(4-fluorophenyl)-4α-methyl-1,4,4α,5,6,7-hexahydrocyclopenta[f]indazol-5-yl]methyl}-N-[2-(2-methoxyphenyl)ethyl]-1-[3-(trifluoromethyl)phenyl]methanesulfonamide]
Human GR [1]
  Emax: 6.6%
  EC50: 202 nM
Human GR [2]
  GITAR > GRAMM % SEP: 9.3%
  EC50: 605 nM
Human GR [2]; [3]
  Emax: 15.9%
Human GR [2]; [4]
  Emax: > 5%

## COc1ccccc1CCN(C[C@H]1CCC2=Cc3c(cnn3-c3ccc(F)cc3)C[C@@]21C)S(=O)(=O)CC(F)(F)F [Example 120, 2,2,2-trifluoro-N-{[(4αR,5S)-1-(4-fluorophenyl)-4α-methyl-1,4,4α,5,6,7-hexahydrocyclopenta[f]indazol-5-yl]methyl}-N-[2-(2-methoxyphenyl)ethyl]ethanesulfonamide]
Human GR [1]
  Emax: 73.2%
  EC50: 110 nM
Human GR [2]
  GITAR > GRAMM % SEP: 18.2%
  EC50: 77.8 nM
Human GR [2]; [3]
  Emax: 91.5%
Human GR [2]; [4]
  Emax: > 5%

## C[C@]12Cc3cnn(-c4ccc(F)cc4)c3C=C1CC[C@@H]2CN(CCc1ccccc1F)S(=O)(=O)CCN1C(=O)c2ccccc2C1=O [Example 121, 2-(1,3-dioxo-1,3-dihydro-2H-isoindol-2-yl)-N-[2-(2-fluorophenyl)ethyl]-N-{[(4αR,5S)-1-(4-fluorophenyl)-4α-methyl-1,4,4α,5,6,7-hexahydrocyclopenta[f]indazol-5-yl]methyl}ethanesulfonamide]
Human GR [1]
  Emax: 15.9%
  EC50: 242 nM
Human GR [2]
  GITAR > GRAMM % SEP: 17.9%
  EC50: 156 nM
Human GR [2]; [3]
  Emax: 33.8%
Human GR [2]; [4]
  Emax: > 5%

## C[C@]12Cc3cnn(-c4ccc(F)cc4)c3C=C1CC[C@@H]2CN(CCc1ccccc1O)S(=O)(=O)Cc1cccc(C(F)(F)F)c1 [Example 122, N-{[(4αR,5S)-1-(4-fluorophenyl)-4α-methyl-1,4,4α,5,6,7-hexahydrocyclopenta[f]indazol-5-yl]methyl}-N-[2-(2-hydroxyphenyl)ethyl]-1-[3-(trifluoromethyl)phenyl]methanesulfonamide]
Human GR [1]
  Emax: 8.9%
  EC50: 502 nM
Human GR [2]
  GITAR > GRAMM % SEP: 30.8%
  EC50: 417 nM
Human GR [2]; [3]
  Emax: 39.7%
Human GR [2]; [4]
  Emax: > 5%
